Reference: the NIST ThermoML archive (doi:10.1021/je200721d)
Numbers after ± are expanded uncertainties.

Assay: xn = mol fraction of the nth substance listed
Conditions: Liquid, Vibrating tube method

CCCCCCCCCC [decane] + CCCCCC
Conditions	mass density [kg/m3]
323.14 K, 13000 kPa, x2 = 0.2185	707.88 ± 0.34
323.14 K, 13000 kPa, x2 = 0.4968	691.97 ± 0.36
323.14 K, 14000 kPa, x2 = 0.0456	717.02 ± 0.34
323.14 K, 14000 kPa, x2 = 0.2185	708.71 ± 0.35
323.14 K, 14000 kPa, x2 = 0.4968	692.85 ± 0.36
323.14 K, 15000 kPa, x2 = 0.0456	717.82 ± 0.35
323.14 K, 15000 kPa, x2 = 0.2185	709.54 ± 0.36
323.14 K, 15000 kPa, x2 = 0.4968	693.71 ± 0.37
323.14 K, 16000 kPa, x2 = 0.0456	718.6 ± 0.36
323.14 K, 16000 kPa, x2 = 0.2185	710.33 ± 0.37
323.14 K, 16000 kPa, x2 = 0.4968	694.57 ± 0.38
323.14 K, 17000 kPa, x2 = 0.0456	719.38 ± 0.37
323.14 K, 17000 kPa, x2 = 0.2185	711.14 ± 0.37
323.14 K, 17000 kPa, x2 = 0.4968	695.4 ± 0.39
323.14 K, 18000 kPa, x2 = 0.0456	720.14 ± 0.37
323.14 K, 18000 kPa, x2 = 0.2185	711.93 ± 0.38
323.14 K, 18000 kPa, x2 = 0.4968	696.25 ± 0.4
323.14 K, 19000 kPa, x2 = 0.0456	720.9 ± 0.38
323.14 K, 19000 kPa, x2 = 0.2185	712.7 ± 0.39
323.14 K, 19000 kPa, x2 = 0.4968	697.05 ± 0.41
323.14 K, 20000 kPa, x2 = 0.0456	721.64 ± 0.39
323.14 K, 20000 kPa, x2 = 0.2185	713.47 ± 0.4
323.14 K, 20000 kPa, x2 = 0.4968	697.87 ± 0.42
323.14 K, 21000 kPa, x2 = 0.0456	722.37 ± 0.4
323.14 K, 21000 kPa, x2 = 0.2185	714.23 ± 0.41
323.14 K, 21000 kPa, x2 = 0.4968	698.66 ± 0.42
323.14 K, 22000 kPa, x2 = 0.0456	723.1 ± 0.4
323.14 K, 22000 kPa, x2 = 0.2185	714.97 ± 0.41
323.14 K, 22000 kPa, x2 = 0.4968	699.42 ± 0.43
323.14 K, 23000 kPa, x2 = 0.0456	723.81 ± 0.41
323.14 K, 23000 kPa, x2 = 0.2185	715.7 ± 0.42
323.14 K, 23000 kPa, x2 = 0.4968	700.17 ± 0.44
323.14 K, 24000 kPa, x2 = 0.0456	724.52 ± 0.42
323.14 K, 24000 kPa, x2 = 0.2185	716.43 ± 0.43
323.14 K, 24000 kPa, x2 = 0.4968	700.91 ± 0.45
323.14 K, 25000 kPa, x2 = 0.0456	725.21 ± 0.43
323.14 K, 25000 kPa, x2 = 0.2185	717.13 ± 0.44
323.14 K, 25000 kPa, x2 = 0.4968	701.65 ± 0.46
323.16 K, 1000 kPa, x2 = 0.7524	659.51 ± 0.27
323.16 K, 2000 kPa, x2 = 0.7524	660.73 ± 0.28
323.16 K, 3000 kPa, x2 = 0.7524	661.92 ± 0.29
323.16 K, 4000 kPa, x2 = 0.7524	663.04 ± 0.29
323.16 K, 5000 kPa, x2 = 0.7524	664.17 ± 0.3
323.16 K, 6000 kPa, x2 = 0.7524	665.29 ± 0.31
323.16 K, 7000 kPa, x2 = 0.7524	666.38 ± 0.32
323.16 K, 8000 kPa, x2 = 0.7524	667.43 ± 0.33
323.16 K, 9000 kPa, x2 = 0.7524	668.5 ± 0.34
323.16 K, 10000 kPa, x2 = 0.7524	669.53 ± 0.34
323.16 K, 10990 kPa, x2 = 0.7524	670.57 ± 0.35
323.16 K, 12000 kPa, x2 = 0.7524	671.56 ± 0.36
323.16 K, 13000 kPa, x2 = 0.7524	672.52 ± 0.37
323.16 K, 14000 kPa, x2 = 0.7524	673.49 ± 0.38
323.16 K, 15000 kPa, x2 = 0.7524	674.44 ± 0.39
323.16 K, 16000 kPa, x2 = 0.7524	675.39 ± 0.4
323.16 K, 17000 kPa, x2 = 0.7524	676.32 ± 0.41
323.16 K, 18000 kPa, x2 = 0.7524	677.22 ± 0.42
323.16 K, 19000 kPa, x2 = 0.7524	678.11 ± 0.43
323.16 K, 20000 kPa, x2 = 0.7524	678.99 ± 0.44
323.16 K, 21000 kPa, x2 = 0.7524	679.85 ± 0.44
323.16 K, 22000 kPa, x2 = 0.7524	680.67 ± 0.45
323.16 K, 23000 kPa, x2 = 0.7524	681.51 ± 0.46
323.16 K, 24000 kPa, x2 = 0.7524	682.33 ± 0.47
323.16 K, 25000 kPa, x2 = 0.7524	683.11 ± 0.48
332.58 K, 1000 kPa, x2 = 0.4968	671.98 ± 0.27
332.58 K, 2000 kPa, x2 = 0.4968	673.11 ± 0.27
332.58 K, 3000 kPa, x2 = 0.4968	674.24 ± 0.28
332.58 K, 4000 kPa, x2 = 0.4968	675.37 ± 0.29
332.58 K, 5000 kPa, x2 = 0.4968	676.46 ± 0.29
332.58 K, 6000 kPa, x2 = 0.4968	677.53 ± 0.3
332.58 K, 7000 kPa, x2 = 0.4968	678.61 ± 0.31
332.58 K, 8000 kPa, x2 = 0.4968	679.66 ± 0.32
332.58 K, 9000 kPa, x2 = 0.4968	680.68 ± 0.33
332.58 K, 10000 kPa, x2 = 0.4968	681.7 ± 0.34
332.58 K, 10990 kPa, x2 = 0.4968	682.69 ± 0.34
332.58 K, 12000 kPa, x2 = 0.4968	683.66 ± 0.35
332.58 K, 13000 kPa, x2 = 0.4968	684.64 ± 0.36
332.58 K, 14000 kPa, x2 = 0.4968	685.59 ± 0.37
332.58 K, 15000 kPa, x2 = 0.4968	686.54 ± 0.38
332.58 K, 16000 kPa, x2 = 0.4968	687.44 ± 0.39
332.58 K, 17000 kPa, x2 = 0.4968	688.35 ± 0.4
332.58 K, 18000 kPa, x2 = 0.4968	689.24 ± 0.4
332.58 K, 19000 kPa, x2 = 0.4968	690.12 ± 0.41
332.58 K, 20000 kPa, x2 = 0.4968	690.99 ± 0.42
332.58 K, 21000 kPa, x2 = 0.4968	691.85 ± 0.43
332.58 K, 22000 kPa, x2 = 0.4968	692.69 ± 0.44
332.58 K, 23000 kPa, x2 = 0.4968	693.52 ± 0.45
332.58 K, 24000 kPa, x2 = 0.4968	694.34 ± 0.46
332.58 K, 25000 kPa, x2 = 0.4968	695.13 ± 0.47
332.93 K, 1000 kPa, x2 = 0.8991	636.12 ± 0.28
332.93 K, 2000 kPa, x2 = 0.8991	637.35 ± 0.29
332.93 K, 3000 kPa, x2 = 0.8991	638.61 ± 0.29
332.93 K, 4000 kPa, x2 = 0.8991	639.84 ± 0.3
332.93 K, 5000 kPa, x2 = 0.8991	641.09 ± 0.31
332.93 K, 6000 kPa, x2 = 0.8991	642.3 ± 0.32
